Activity calls are given as the source filed them. No cut-off for these calls is given here.
Tests used:
Rattus norvegicus [1] = assay: Antiinflammatory activity in po dosed formalin-induced rat foot paw edema model assessed as paw thickness after 3 hrs; format: functional
[2] = biological target: T1, Prostaglandin G/H synthase 1 (Ovis aries, UniProt P05979); assay: Inhibition of ovine COX1 by enzyme immuno assay
T1 sequence (P05979 whole entry): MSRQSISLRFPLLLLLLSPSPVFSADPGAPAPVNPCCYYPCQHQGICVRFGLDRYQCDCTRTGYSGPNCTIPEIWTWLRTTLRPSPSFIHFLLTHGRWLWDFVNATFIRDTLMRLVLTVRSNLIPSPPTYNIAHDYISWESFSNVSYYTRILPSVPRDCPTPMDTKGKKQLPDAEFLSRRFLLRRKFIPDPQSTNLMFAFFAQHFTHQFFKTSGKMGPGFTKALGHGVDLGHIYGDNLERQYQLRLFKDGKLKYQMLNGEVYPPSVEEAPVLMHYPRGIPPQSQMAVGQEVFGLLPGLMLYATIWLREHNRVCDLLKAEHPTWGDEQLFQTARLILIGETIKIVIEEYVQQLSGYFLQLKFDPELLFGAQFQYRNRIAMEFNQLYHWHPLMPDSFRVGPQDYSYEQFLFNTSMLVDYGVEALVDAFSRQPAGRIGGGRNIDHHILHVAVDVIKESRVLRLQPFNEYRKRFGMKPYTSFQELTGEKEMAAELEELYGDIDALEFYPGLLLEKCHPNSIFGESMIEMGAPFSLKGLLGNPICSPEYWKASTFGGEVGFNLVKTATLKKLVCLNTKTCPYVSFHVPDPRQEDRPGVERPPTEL

Rattus norvegicus [3] = assay: Ulcerogenic activity in po dosed formalin-induced rat foot paw edema model assessed as ulcer index at antiinflammatory ED50; format: toxicity, organism-based; conditions: in vivo
Rattus norvegicus [4] = assay: Ulcerogenic activity in formalin-induced rat foot paw edema model assessed as ulcer index at 120 umol/kg, po; format: toxicity, organism-based; conditions: in vivo

Row | SMILES | ED50 (Rattus norvegicus [1]) | IC50 [2] | UI (Rattus norvegicus [3]) | UI (Rattus norvegicus [4])
1 | COc1ccc(C2CC(c3ccco3)=NN2c2ccc(S(N)(=O)=O)cc2)cc1 (configuration not stated) | 232 µmol/kg | 6.74 µM | 3.13 | 
2 | COc1cc(C2CC(c3cccs3)=NN2c2ccc(S(N)(=O)=O)cc2)cc(OC)c1OC (configuration not stated) | 382 µmol/kg | 13.4 µM |  | 
3 | CC(C)Cc1ccc(C(C)C(=O)O)cc1 (configuration not stated) [IBUPROFEN] | 499 µmol/kg |  |  | 20.25
4 | NS(=O)(=O)c1ccc(N2N=C(c3cccs3)CC2c2ccc(C(F)(F)F)cc2)cc1 (configuration not stated) | 99 µmol/kg | 5.74 µM | 3.8 | 
5 | NS(=O)(=O)c1ccc(N2N=C(c3ccco3)CC2c2ccccc2)cc1 (configuration not stated) | 238 µmol/kg | 10.2 µM | 4.6 | 
6 | COc1cc(C2CC(c3ccco3)=NN2c2ccc(S(N)(=O)=O)cc2)cc(OC)c1OC (configuration not stated) | 179 µmol/kg | 7.36 µM | 2.7 | 
7 | COc1ccc(C2CC(c3cccs3)=NN2c2ccc(S(N)(=O)=O)cc2)cc1 (configuration not stated) | 204 µmol/kg | 11.7 µM | 2.97 | 
8 | NS(=O)(=O)c1ccc(N2N=C(c3cccs3)CC2c2ccco2)cc1 (configuration not stated) | 209 µmol/kg | 14.6 µM | 4.15 | 
9 | NS(=O)(=O)c1ccc(N2N=C(c3cccs3)CC2c2ccc(Cl)cc2)cc1 (configuration not stated) | 197 µmol/kg | 8.71 µM | 2.82 | 
10 | NS(=O)(=O)c1ccc(N2N=C(c3ccco3)CC2c2cccs2)cc1 (configuration not stated) | 469 µmol/kg | 12.3 µM | 3.03 | 
11 | NS(=O)(=O)c1ccc(N2N=C(c3ccco3)CC2c2ccc(C(F)(F)F)cc2)cc1 (configuration not stated) | inactive | 2.14 µM | 1.2 | 
12 | Cc1ccc(-c2cc(C(F)(F)F)nn2-c2ccc(S(N)(=O)=O)cc2)cc1 [CELECOXIB] | 47 µmol/kg |  | 2.9 | 
13 | NS(=O)(=O)c1ccc(N2N=C(c3ccco3)CC2c2ccc(Cl)cc2)cc1 (configuration not stated) | 404 µmol/kg | 4.66 µM | 4.12 | 
14 | NS(=O)(=O)c1ccc(N2N=C(c3cccs3)CC2c2cccs2)cc1 (configuration not stated) | 144 µmol/kg | 16.4 µM | 2.7 | 
15 | NS(=O)(=O)c1ccc(N2N=C(c3ccco3)CC2c2ccco2)cc1 (configuration not stated) | 383 µmol/kg | 9.65 µM | 1.2 | 

— ChEMBL document CHEMBL3745634, “Synthesis, cyclooxygenase inhibition, anti-inflammatory evaluation and ulcerogenic liability of new 1,3,5-triarylpyrazoline and 1,5-diarylpyrazole derivatives as selective COX-2 inhibitors” (Bioorg Med Chem Lett, 2016)
